Patent publication US11932600B2, “Biaryl derivative” (DAIICHI SANKYO COMPANY, LIMITED, priority 2018, dated 2024)

Columns and labels:
human TNAP = target: T1, human TNAP (Homo sapiens, UniProt P05186); experiment: Inhibitory test of TNAP activity (pNPP substrate, p-nitrophenol production); assay type: biochemical; details: human TNAP from culture supernatant of transfected COS1 cells, 60 minutes at room temperature, ABS 405 nm
T1 construct: host or cells: COS1 cells, concentrated and dialyzed culture supernatant
T1 sequence (P05186 18-502 limits assumed): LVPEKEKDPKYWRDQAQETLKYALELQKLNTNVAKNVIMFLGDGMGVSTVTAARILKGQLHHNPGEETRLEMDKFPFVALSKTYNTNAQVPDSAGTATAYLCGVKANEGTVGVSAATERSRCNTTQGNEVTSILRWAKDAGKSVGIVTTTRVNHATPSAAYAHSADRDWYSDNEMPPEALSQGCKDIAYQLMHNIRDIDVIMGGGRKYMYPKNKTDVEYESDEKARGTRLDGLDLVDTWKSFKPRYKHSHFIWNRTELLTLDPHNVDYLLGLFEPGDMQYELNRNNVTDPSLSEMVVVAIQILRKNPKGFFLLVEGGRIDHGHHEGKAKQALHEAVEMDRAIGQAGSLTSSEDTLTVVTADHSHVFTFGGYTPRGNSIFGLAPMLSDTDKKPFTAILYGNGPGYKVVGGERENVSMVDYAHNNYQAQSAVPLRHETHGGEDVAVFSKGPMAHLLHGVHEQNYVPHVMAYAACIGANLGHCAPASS
Description: <Test Examples> (Test Example 1) Inhibitory Test of TNAP Activity
COS1 cells (DS Pharma Biomedical Co., Ltd.) were transfected with human TNAP (OriGene Technologies, Inc.) using Lipofectamine LTX & Plus reagent (Invitrogen Corp.). On the next day, the medium was replaced with a fresh medium, and the cells were cultured in an incubator for 3 days. After 3 days, the culture supernatant was collected and concentrated by centrifugation at 5000 G for 30 minutes using Amicon 14, 10^4 cut (Merck Millipore). The concentrated culture supernatant was dialyzed against 5 L of 50 mM Tris/200 mM NaCl/1 mM MgCl2/20 μM ZnCl2 twice and used as an enzyme source (enzyme solution). The substrate pNPP (ProteoChem Inc.) was adjusted to 3.1 mM with Milli-Q water, and a solution of each test compound dissolved in dimethyl sulfoxide (DMSO; Wako Pure Chemical Industries, Ltd.) by 6 serial dilutions at a 5-fold common ratio from 100 μM or DMSO was added thereto at a final concentration of 1% by volume. The enzyme solution adjusted to 2 μg/mL with an assay buffer (200 mM Tris/2 mM MgCl2/0.04 mM ZnCl2/0.01% Tween 20) was added in the same amount of the substrate solution and incubated at room temperature for 60 minutes. Then, the absorbance (ABS: 405 nm) was measured using a microplate reader (model plus 384, Molecular Devices, LLC), and the concentration of produced p-nitrophenol was calculated.

[1] = system: plasma ALP (80-90% containing TNAP); experiment: Inhibitory test of plasma TNAP activity in B6 mouse; assay type: in vivo; details: 0.3 mg/kg orally in 0.5% methylcellulose, average inhibition from 0 hour to 6 hours after administration, activity before administration = 100%
Description: (Test Example 3) Inhibitory Test of Plasma TNAP Activity in B6 Mouse (Charles River Laboratories Japan, Inc.)
After blood sampling from the tail vein using a heparin-treated hematocrit capillary tube (EM Meister Hematocrit Capillary Tube, AS ONE Corp.) (as the sample before compound administration), each test compound suspended in a 0.5% methylcellulose solution (powder purchased from Wako Pure Chemical Industries, Ltd. was adjusted to 0.5% with Otsuka distilled water) was administered orally to the mouse (0.3 mg/kg). 1, 2, 4, 6, and 24 hours after the administration, blood was collected from the tail vein using a heparin-treated hematocrit capillary tube to obtain a plasma sample. The plasma sample was added to an assay buffer (1 M Tris, 1 M MgCl2, 20 mM ZnCl2, and water, pH 7.5), and the mixture was left standing for 5 minutes. Then, the absorbance at 405 nm was measured and used as a blank. The substrate pNPP was added to the plasma sample and incubated at room temperature for 180 minutes. Then, the absorbance (ABS: 405 nm) was measured using a microplate reader (model plus 384, Molecular Devices, LLC), and the concentration of produced p-nitrophenol was calculated. The blank was subtracted from all measurement values to calculate TNAP activity at each time point with the TNAP activity of the sample before compound administration defined as 100%.
It was calculated according to the following expression: 100−((plasma ALP activity at 0 hr+plasma ALP activity at 1 hr)*1/2+(plasma ALP activity at 1 hr+plasma ALP activity at 2 hr)*1/2+(plasma ALP activity at 2 hr+plasma ALP activity at 4 hr)*2/2+(plasma ALP activity at 4 hr+plasma ALP activity at 6 hr)*2/2)/6.

Structure (SMILES)	IC50 (human TNAP) [nM]	Plasma ALP Inhibition (6 h ave. inhibition %) [1] [%]
Cc1cncc(S(=O)(=O)Nc2c(F)cc(Cl)cc2-c2ccc(CCC(=O)O)cc2)c1C [Example 31, 3-{5′-Chloro-2′-[(4,5-dimethylpyridine-3-sulfonyl)amino]-3′-fluoro[1,1′-biphenyl]-4-yl}propanoic acid]	0.18	82.2
Cc1cncc(S(=O)(=O)Nc2c(Cl)cc(Cl)cc2-c2ccc(OC(C)(C)C(=O)O)cc2)c1 [Example 2, 2-({3′,5′-Dichloro-2′-[(5-methylpyridine-3-sulfonyl)amino][1,1′-biphenyl]-4-yl}oxy)-2-methylpropanoic acid]	0.5	–
COc1cncc(S(=O)(=O)Nc2c(Cl)cc(Cl)cc2-c2ccc(C(F)(F)C(=O)O)cc2)c1 [Example 20, {3′,5′-Dichloro-2′-[(5-methoxypyridine-3-sulfonyl)amino][1,1′-biphenyl]-4-yl}(difluoro)acetic acid]	0.36	–
Cc1ncncc1S(=O)(=O)Nc1c(F)cc(Cl)cc1-c1ccc(OC(C)(C)C(=O)O)cc1 [Example 23, 2-({5′-Chloro-3′-fluoro-2′-[(4-methylpyrimidine-5-sulfonyl)amino][1,1′-biphenyl]-4-yl}oxy)-2-methylpropanoic acid]	2.4	–
COc1cncc(S(=O)(=O)Nc2c(Cl)cc(Cl)cc2-c2ccc(CC(=O)O)cc2)c1 [Example 22, {3′,5′-Dichloro-2′-[(5-methoxypyridine-3-sulfonyl)amino][1,1′-biphenyl]-4-yl}acetic acid]	0.28	–
CC(C)(Oc1ccc(-c2cc(Cl)cc(F)c2NS(=O)(=O)c2cncc(S(C)(=O)=O)c2)cc1)C(=O)O [Example 28, 2-[(5′-Chloro-3′-fluoro-2′-{[5-(methanesulfonyl)pyridine-3-sulfonyl]amino}[1,1′-biphenyl]-4-yl)oxy]-2-methylpropanoic acid]	2.6	–
Cc1cncc(S(=O)(=O)Nc2c(F)cc(Cl)cc2-c2ccc(OC(C)(C)C(=O)O)c(F)c2)c1 [Example 27, 2-({5′-Chloro-3,3′-difluoro-2′-[(5-methylpyridine-3-sulfonyl)amino][1,1′-biphenyl]-4-yl}oxy)-2-methylpropanoic acid]	0.68	–
COc1cncc(S(=O)(=O)Nc2c(Cl)cc(Cl)cc2-c2ccc(OC(C)C(=O)O)cc2)c1 (stereo not drawn) [Example 19, 2-({3′,5′-Dichloro-2′-[(5-methoxypyridine-3-sulfonyl)amino][1,1′-biphenyl]-4-yl}oxy)propanoic acid]	0.49	–
CC(C)Oc1cncc(S(=O)(=O)Nc2c(F)cc(Cl)cc2-c2ccc(OC(C)(C)C(=O)O)cc2)c1 [Example 26, 2-{[5′-Chloro-3′-fluoro-2′-({5-[(propan-2-yl)oxy]pyridine-3-sulfonyl}amino)[1,1′-biphenyl]-4-yl]oxy}-2-methylpropanoic acid]	0.19	–
Cc1cncc(S(=O)(=O)Nc2c(F)cc(Cl)cc2-c2ccc(CCC(=O)O)cc2)c1 [Example 4, 3-{5′-Chloro-3′-fluoro-2′-[(5-methylpyridine-3-sulfonyl)amino][1,1′-biphenyl]-4-yl}propanoic acid]	–	80.2
COc1cncc(S(=O)(=O)Nc2c(Cl)cc(Cl)cc2-c2ccc(S(C)(=O)=O)c(F)c2)c1 [Example 21, N-[3,5-Dichloro-3′-fluoro-4′-(methanesulfonyl)[1,1′-biphenyl]-2-yl]-5-methoxypyridine-3-sulfonamide]	1.2	–
Cc1cncc(S(=O)(=O)Nc2c(F)cc(Cl)cc2-c2ccc(C(C)C(=O)O)cc2)c1 (racemic) [Example 32, 2-{5′-Chloro-3′-fluoro-2′-[(5-methylpyridine-3-sulfonyl)amino][1,1′-biphenyl]-4-yl}propanoic acid]	0.17	–
CCC(C(=O)O)c1ccc(-c2cc(Cl)cc(F)c2NS(=O)(=O)c2cncc(C)c2)cc1 (stereo not drawn) [Example 33, 2-{5′-Chloro-3′-fluoro-2′-[(5-methylpyridine-3-sulfonyl)amino][1,1′-biphenyl]-4-yl}butanoic acid]	0.14	–

Continued, in another order:

IC50 (human TNAP) [nM]	Structure (SMILES)	Plasma ALP Inhibition (6 h ave. inhibition %) [1] [%]
5.5	O=C(O)COc1ccc(-c2cc(Cl)cc(Cl)c2NS(=O)(=O)c2cccnc2)cc1 [Example 1, ({3′,5′-Dichloro-2′-[(pyridine-3-sulfonyl)amino][1,1′-biphenyl]-4-yl}oxy)acetic acid]	–
2.4	O=C(O)COc1ccc(-c2cc(Cl)cc(F)c2NS(=O)(=O)c2cccnc2)cc1 [Example 16, ({5′-Chloro-3′-fluoro-2′-[(pyridine-3-sulfonyl)amino][1,1′-biphenyl]-4-yl}oxy)acetic acid]	–
0.15	CCc1cncc(S(=O)(=O)Nc2c(F)cc(Cl)cc2-c2ccc(OC(C)(C)C(=O)O)cc2)c1 [Example 7, 2-({5′-Chloro-2′-[(5-ethylpyridine-3-sulfonyl)amino]-3′-fluoro[1,1′-biphenyl]-4-yl}oxy)-2-methylpropanoic acid]	69.0
0.23	COc1cncc(S(=O)(=O)Nc2c(F)cc(Cl)cc2-c2ccc(OC(C)(C)C(=O)O)cc2)c1 [Example 18, 2-({5′-Chloro-3′-fluoro-2′-[(5-methoxypyridine-3-sulfonyl)amino][1,1′-biphenyl]-4-yl}oxy)-2-methylpropanoic acid]	–
0.24	CC(C)Oc1cncc(S(=O)(=O)Nc2c(F)cc(Cl)cc2-c2ccc(CCC(=O)O)cc2)c1 [Example 30, 3-[5′-Chloro-3′-fluoro-2′-({5-[(propan-2-yl)oxy]pyridine-3-sulfonyl}amino)[1,1′-biphenyl]-4-yl]propanoic acid]	69.9
0.41	COc1ccncc1S(=O)(=O)Nc1c(F)cc(Cl)cc1-c1ccc(OC(C)(C)C(=O)O)cc1 [Example 25, 2-({5′-Chloro-3′-fluoro-2′-[(4-methoxypyridine-3-sulfonyl)amino][1,1′-biphenyl]-4-yl}oxy)-2-methylpropanoic acid]	–
0.3	Cc1cncc(S(=O)(=O)Nc2c(F)cc(Cl)cc2-c2ccc(OCC(=O)O)cc2)c1 [Example 17, ({5′-Chloro-3′-fluoro-2′-[(5-methylpyridine-3-sulfonyl)amino][1,1′-biphenyl]-4-yl}oxy)acetic acid]	–
0.9	Cc1cncc(S(=O)(=O)Nc2c(Cl)cc(Cl)cc2-c2ccc(OCC(=O)O)cc2)c1 [Example 15, ({3′,5′-Dichloro-2′-[(5-methylpyridine-3-sulfonyl)amino][1,1′-biphenyl]-4-yl}oxy)acetic acid]	–
2.6	CC(C)(Oc1ccc(-c2cc(Cl)cc(Cl)c2NS(=O)(=O)c2cccnc2)cc1)C(=O)O [Example 14, 2-({3′,5′-Dichloro-2′-[(pyridine-3-sulfonyl)amino][1,1′-biphenyl]-4-yl}oxy)-2-methylpropanoic acid]	–
0.2	CCc1ccncc1S(=O)(=O)Nc1c(F)cc(Cl)cc1-c1ccc(OC(C)(C)C(=O)O)cc1 [Example 24, 2-({5′-Chloro-2′-[(4-ethylpyridine-3-sulfonyl)amino]-3′-fluoro[1,1′-biphenyl]-4-yl}oxy)-2-methylpropanoic acid]	–
3.5	CC(Oc1ccc(-c2cc(Cl)cc(Cl)c2NS(=O)(=O)c2cccnc2)cc1)C(=O)O (stereo not drawn) [Example 13, 2-({3′,5′-Dichloro-2′-[(pyridine-3-sulfonyl)amino][1,1′-biphenyl]-4-yl}oxy)propanoic acid]	–
